Laboratory results from US20150329896A1, “N-END RULE PROTEASE ACTIVITY […] AND USES THEREOF” (priority 2010, published 2015).
Peptide text beside a SMILES is read from it. * marks the point of attachment. Cbz = O=C(OCc1ccccc1)*

System: proteasome
Assay type: cell-based

CC(C)C[C@@H](C=O)NC(=O)[C@H](CC(C)C)NC(=O)[C@H](CC(C)C)NC(=O)OCc1ccccc1 [MG132] (Cbz-Leu-Leu-Leu-aldehyde) was tested, and the “level of C-terminal (P9-luciferase) fragment produced by BoNT/A proteolysis” value was “accumulated”.
